According to patent US10351575B2, “Bicyclic urea, thiourea, guanidine and cyanoguanidine compounds useful for the treatment of pain” (Array BioPharma Inc., priority 2012, dated 2019):

Experiments:
Test in all cases: KinaseProfiler off-target kinase profiling
Assay type in all cases: biochemical
Details in all cases: 10 μM, ATP near Km
[1] = target: STK33 (Homo sapiens (Human), UniProt Q9BYT3)
In short: (§1)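 Data represent percent of control averaged across duplicates, from a one-concentration (10 μM) test with kinase-specific near-Km ATP.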

[2] = target: Plk2 (Homo sapiens (Human), UniProt Q9NYY3)
In short: as §1

[3] = target: MuSK (Homo sapiens (Human), UniProt O15146)
In short: as §1

[4] = target: TAK1 (Homo sapiens (Human), UniProt O43318)
In short: as §1

[5] = target: BTK (Homo sapiens (Human), UniProt Q06187)
In short: as §1

[6] = target: GRK5 (Homo sapiens (Human), UniProt P34947)
In short: as §1

[7] = target: DAPK3 (Homo sapiens (Human), UniProt O43293)
In short: as §1

[8] = target: NEK6 (Homo sapiens (Human), UniProt Q9HC98)
In short: as §1

[9] = target: Fgr (Homo sapiens (Human), UniProt P09769)
In short: as §1

[10] = target: Ret (Homo sapiens (Human), UniProt P07949)
In short: as §1

[11] = target: PDGFRbeta (Homo sapiens (Human), UniProt P09619)
In short: as §1

[12] = target: PKCdelta (Homo sapiens (Human), UniProt Q05655)
In short: as §1

[13] = target: JNK3 (Homo sapiens (Human), UniProt P53779)
In short: as §1

[14] = target: EphA1 (Homo sapiens (Human), UniProt P21709)
In short: as §1

[15] = target: MAPKAP-K2 (Homo sapiens (Human), UniProt P49137)
In short: as §1

[16] = target: BLK_m (Mus musculus (Mouse), UniProt P16277)
In short: as §1

[17] = target: ULK2 (Homo sapiens (Human), UniProt Q8IYT8)
In short: as §1

[18] = target: CK1gamma1 (Homo sapiens (Human), UniProt Q9HCP0)
In short: as §1

[19] = target: NEK2 (Homo sapiens (Human), UniProt P51955)
In short: as §1

[20] = target: PKCgamma (Homo sapiens (Human), UniProt P05129)
In short: as §1

[21] = target: EphB3 (Homo sapiens (Human), UniProt P54753)
In short: as §1

[22] = target: EphA3 (Homo sapiens (Human), UniProt P29320)
In short: as §1

[23] = target: SIK (Homo sapiens (Human), UniProt P57059)
In short: as §1

[24] = target: PKCalpha (Homo sapiens (Human), UniProt P17252)
In short: as §1

[25] = target: GRK7 (Homo sapiens (Human), UniProt Q8WTQ7)
In short: as §1

[26] = target: SGK1 (Homo sapiens (Human), UniProt O00141)
In short: as §1

[27] = target: ERK1 (Homo sapiens (Human), UniProt P27361)
In short: as §1

[28] = target: PKCeta (Homo sapiens (Human), UniProt P24723)
In short: as §1

[29] = target: TBK1 (Homo sapiens (Human), UniProt Q9UHD2)
In short: as §1

[30] = target: MELK (Homo sapiens (Human), UniProt Q14680)
In short: as §1

[31] = target: Syk (Homo sapiens (Human), UniProt P43405)
In short: as §1

[32] = target: NEK3 (Homo sapiens (Human), UniProt P51956)
In short: as §1

[33] = target: CSK (Homo sapiens (Human), UniProt P41240)
In short: as §1

[34] = target: AKT1 (Homo sapiens (Human), UniProt P31749)
In short: as §1

Chain of AKT1 (P31749 whole entry): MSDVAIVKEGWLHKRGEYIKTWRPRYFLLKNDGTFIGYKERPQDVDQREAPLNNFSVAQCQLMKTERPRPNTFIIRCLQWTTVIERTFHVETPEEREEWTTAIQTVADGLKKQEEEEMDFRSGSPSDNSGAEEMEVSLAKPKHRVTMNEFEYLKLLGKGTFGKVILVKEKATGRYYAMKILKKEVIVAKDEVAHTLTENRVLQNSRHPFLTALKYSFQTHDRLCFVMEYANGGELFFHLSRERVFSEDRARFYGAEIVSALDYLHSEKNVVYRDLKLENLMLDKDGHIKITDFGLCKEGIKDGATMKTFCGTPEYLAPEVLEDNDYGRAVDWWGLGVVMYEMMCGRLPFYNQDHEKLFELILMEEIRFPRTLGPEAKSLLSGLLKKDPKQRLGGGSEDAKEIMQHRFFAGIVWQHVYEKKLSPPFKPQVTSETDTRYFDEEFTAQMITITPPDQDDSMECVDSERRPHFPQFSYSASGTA
Chain of CSK (P41240 whole entry): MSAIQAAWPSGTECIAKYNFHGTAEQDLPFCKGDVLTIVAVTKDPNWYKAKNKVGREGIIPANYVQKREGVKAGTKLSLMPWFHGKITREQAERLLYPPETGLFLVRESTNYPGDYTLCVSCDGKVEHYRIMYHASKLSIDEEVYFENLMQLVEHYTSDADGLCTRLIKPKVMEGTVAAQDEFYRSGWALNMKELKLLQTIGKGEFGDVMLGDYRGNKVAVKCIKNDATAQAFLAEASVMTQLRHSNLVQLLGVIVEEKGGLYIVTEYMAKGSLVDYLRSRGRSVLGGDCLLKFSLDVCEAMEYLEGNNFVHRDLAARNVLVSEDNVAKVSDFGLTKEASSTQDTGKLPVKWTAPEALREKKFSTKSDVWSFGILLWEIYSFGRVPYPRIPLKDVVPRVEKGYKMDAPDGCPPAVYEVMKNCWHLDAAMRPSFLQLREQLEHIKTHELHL
Chain of MAPKAP-K2 (P49137 whole entry): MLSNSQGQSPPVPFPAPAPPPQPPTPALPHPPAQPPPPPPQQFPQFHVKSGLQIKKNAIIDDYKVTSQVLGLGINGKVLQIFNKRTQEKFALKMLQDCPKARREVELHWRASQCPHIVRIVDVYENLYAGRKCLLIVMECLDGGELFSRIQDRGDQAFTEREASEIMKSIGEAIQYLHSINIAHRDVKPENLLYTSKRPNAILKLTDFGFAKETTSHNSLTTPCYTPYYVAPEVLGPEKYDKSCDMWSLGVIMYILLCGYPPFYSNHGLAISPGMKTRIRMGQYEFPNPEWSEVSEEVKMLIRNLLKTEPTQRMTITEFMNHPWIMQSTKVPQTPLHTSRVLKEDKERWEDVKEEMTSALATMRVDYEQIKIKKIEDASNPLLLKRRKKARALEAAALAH
Chain of PKCdelta (Q05655 whole entry): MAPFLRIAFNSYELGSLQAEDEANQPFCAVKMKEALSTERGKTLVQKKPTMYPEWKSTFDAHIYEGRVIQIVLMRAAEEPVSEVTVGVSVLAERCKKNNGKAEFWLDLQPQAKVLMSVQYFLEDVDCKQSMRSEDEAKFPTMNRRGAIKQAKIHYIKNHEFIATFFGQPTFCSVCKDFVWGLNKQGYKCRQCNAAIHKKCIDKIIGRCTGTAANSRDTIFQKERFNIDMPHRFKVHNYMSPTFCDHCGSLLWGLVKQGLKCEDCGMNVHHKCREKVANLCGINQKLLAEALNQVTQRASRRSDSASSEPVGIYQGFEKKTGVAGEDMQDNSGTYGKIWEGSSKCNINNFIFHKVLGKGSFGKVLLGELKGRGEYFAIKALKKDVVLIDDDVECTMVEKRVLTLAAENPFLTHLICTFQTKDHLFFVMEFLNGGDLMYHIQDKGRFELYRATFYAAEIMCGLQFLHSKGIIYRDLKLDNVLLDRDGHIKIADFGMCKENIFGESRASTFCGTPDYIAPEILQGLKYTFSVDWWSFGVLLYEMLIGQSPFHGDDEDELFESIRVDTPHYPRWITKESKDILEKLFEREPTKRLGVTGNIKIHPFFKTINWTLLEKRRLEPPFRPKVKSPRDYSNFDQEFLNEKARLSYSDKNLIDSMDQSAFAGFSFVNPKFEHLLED
Chain of EphB3 (P54753 34-998): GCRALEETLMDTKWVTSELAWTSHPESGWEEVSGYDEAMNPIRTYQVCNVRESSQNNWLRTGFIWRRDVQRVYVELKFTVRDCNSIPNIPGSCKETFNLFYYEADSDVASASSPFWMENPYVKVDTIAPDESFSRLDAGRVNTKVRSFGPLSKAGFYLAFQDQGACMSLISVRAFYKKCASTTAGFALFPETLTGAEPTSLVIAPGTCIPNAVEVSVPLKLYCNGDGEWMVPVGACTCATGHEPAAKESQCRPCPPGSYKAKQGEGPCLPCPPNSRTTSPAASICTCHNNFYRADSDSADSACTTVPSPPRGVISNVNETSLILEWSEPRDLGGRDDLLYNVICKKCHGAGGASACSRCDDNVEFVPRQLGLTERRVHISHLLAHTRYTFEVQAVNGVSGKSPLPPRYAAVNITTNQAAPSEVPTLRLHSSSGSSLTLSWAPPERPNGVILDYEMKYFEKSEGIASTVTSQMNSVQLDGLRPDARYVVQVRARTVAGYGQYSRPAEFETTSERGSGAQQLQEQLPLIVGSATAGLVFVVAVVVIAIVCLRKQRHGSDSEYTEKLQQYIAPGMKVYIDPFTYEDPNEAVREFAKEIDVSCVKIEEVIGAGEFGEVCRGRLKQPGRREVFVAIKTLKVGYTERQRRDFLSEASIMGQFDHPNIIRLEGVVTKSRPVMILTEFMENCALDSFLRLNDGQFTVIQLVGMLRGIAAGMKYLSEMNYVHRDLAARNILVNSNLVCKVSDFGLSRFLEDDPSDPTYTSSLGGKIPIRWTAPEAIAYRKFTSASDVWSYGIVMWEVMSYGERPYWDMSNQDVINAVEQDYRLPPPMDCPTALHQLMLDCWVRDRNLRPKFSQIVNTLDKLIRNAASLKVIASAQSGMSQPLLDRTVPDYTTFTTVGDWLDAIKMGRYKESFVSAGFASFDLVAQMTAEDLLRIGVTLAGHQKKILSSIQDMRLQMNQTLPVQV
Chain of PDGFRbeta (P09619 33-1106): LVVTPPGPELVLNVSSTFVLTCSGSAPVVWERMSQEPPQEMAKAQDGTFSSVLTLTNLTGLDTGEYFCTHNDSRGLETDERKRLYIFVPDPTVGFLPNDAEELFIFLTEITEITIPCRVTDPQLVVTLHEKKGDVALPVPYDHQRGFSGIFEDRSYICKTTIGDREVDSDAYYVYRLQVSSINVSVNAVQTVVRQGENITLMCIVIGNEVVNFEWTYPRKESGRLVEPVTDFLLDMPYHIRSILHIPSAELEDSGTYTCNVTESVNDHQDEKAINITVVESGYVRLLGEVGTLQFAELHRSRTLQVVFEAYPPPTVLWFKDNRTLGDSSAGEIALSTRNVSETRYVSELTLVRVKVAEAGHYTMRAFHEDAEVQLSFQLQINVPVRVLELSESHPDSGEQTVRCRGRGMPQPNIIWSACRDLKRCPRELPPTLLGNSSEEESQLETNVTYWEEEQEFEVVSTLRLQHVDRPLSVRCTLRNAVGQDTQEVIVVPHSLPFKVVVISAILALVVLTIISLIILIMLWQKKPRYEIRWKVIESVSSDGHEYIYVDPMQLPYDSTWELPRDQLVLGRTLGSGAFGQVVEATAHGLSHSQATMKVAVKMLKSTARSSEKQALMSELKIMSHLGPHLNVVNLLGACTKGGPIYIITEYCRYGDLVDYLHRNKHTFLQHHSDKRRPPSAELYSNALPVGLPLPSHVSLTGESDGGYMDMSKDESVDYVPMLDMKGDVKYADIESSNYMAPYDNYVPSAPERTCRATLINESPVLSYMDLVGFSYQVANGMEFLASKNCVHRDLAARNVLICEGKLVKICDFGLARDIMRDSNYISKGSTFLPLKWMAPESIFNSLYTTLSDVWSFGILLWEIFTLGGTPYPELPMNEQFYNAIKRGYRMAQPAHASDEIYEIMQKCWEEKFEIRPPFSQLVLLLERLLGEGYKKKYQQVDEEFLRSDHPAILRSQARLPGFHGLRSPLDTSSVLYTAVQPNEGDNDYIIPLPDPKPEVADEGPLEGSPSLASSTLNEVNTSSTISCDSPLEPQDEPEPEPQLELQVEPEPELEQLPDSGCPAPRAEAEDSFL
Chain of MuSK (O15146 24-869): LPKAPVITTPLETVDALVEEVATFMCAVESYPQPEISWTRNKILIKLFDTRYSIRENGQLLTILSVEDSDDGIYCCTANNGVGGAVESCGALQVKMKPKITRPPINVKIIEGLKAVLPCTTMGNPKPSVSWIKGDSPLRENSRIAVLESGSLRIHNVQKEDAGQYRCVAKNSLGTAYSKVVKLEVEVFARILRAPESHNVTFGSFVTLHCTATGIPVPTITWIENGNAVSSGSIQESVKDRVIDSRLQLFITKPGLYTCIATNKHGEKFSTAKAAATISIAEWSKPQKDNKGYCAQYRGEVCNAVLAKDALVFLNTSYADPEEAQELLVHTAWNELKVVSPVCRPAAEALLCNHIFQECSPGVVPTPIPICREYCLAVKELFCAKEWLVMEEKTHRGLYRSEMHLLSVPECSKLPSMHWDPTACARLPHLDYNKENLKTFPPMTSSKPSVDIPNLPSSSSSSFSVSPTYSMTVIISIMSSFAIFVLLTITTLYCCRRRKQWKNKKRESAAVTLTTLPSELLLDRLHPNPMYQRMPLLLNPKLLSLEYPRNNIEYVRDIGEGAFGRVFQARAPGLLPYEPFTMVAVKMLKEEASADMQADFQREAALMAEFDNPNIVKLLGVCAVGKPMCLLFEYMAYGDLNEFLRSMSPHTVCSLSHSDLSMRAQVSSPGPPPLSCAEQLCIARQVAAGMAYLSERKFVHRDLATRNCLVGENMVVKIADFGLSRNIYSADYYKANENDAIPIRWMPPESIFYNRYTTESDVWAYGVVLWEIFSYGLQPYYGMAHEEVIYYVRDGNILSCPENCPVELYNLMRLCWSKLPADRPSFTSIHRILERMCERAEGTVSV

Cc1c(-c2ccc(=O)n(C)c2)nn(-c2ccccc2)c1NC(=O)NC1CN(CC(F)(F)F)Cc2ccccc21 (centres unmarked) [Example 26, 1-(4-methyl-3-(1-methyl-6-oxo-1,6-dihydropyridin-3-yl)-1-phenyl-1H-pyrazol-5-yl)-3-(2-(2,2,2-trifluoroethyl)-1,2,3,4-tetrahydroisoquinolin-4-yl)urea] was tested, and the “Avg. POC” value [1] was 111 POC, the “Avg. POC” value [2] was 101.5 POC and the “Avg. POC” value [3] was 99.5 POC. For the same compound, the “Avg. POC” value [4] was 108.5 POC, the “Avg. POC” value [5] was 139 POC and the “Avg. POC” value [6] was 86 POC. For the same compound, the “Avg. POC” value [7] was 103 POC, the “Avg. POC” value [8] was 123.5 POC and the “Avg. POC” value [9] was 114.5 POC. For the same compound, the “Avg. POC” value [10] was 106.5 POC, the “Avg. POC” value [11] was 122.5 POC and the “Avg. POC” value [12] was 105 POC. For the same compound, the “Avg. POC” value [13] was 116 POC, the “Avg. POC” value [14] was 101 POC and the “Avg. POC” value [15] was 120 POC. The “Avg. POC” value [16] was 103.5 POC, the “Avg. POC” value [17] was 102 POC and the “Avg. POC” value [18] was 106.5 POC. The “Avg. POC” value [19] was 100.5 POC, the “Avg. POC” value [20] was 99 POC and the “Avg. POC” value [21] was 97 POC. The “Avg. POC” value [22] was 128 POC, the “Avg. POC” value [23] was 121.5 POC and the “Avg. POC” value [24] was 107.5 POC. The “Avg. POC” value [25] was 118 POC, the “Avg. POC” value [26] was 97.5 POC and the “Avg. POC” value [27] was 109.5 POC. The “Avg. POC” value [28] was 98 POC, the “Avg. POC” value [29] was 113 POC and the “Avg. POC” value [30] was 86 POC. For the same compound, the “Avg. POC” value [31] was 93.5 POC, the “Avg. POC” value [32] was 105 POC and the “Avg. POC” value [33] was 118.5 POC. The “Avg. POC” value [34] was 100 POC.
COCc1ccc2c(c1)C(NC(=O)Nc1c(C)c(-c3cnn(C)c3)nn1-c1ccccc1)COC2 (centres unmarked) [Example 32, 1-(1′,4-dimethyl-1-phenyl-1H,1′H-[3,4′-bipyrazol]-5-yl)-3-(6-(methoxymethyl)isochroman-4-yl)urea] was tested, and the “Avg. POC” value [1] was 115 POC, the “Avg. POC” value [2] was 103 POC and the “Avg. POC” value [3] was 104.5 POC. For the same compound, the “Avg. POC” value [4] was 99.5 POC, the “Avg. POC” value [5] was 119 POC and the “Avg. POC” value [6] was 90 POC. The “Avg. POC” value [7] was 111 POC, the “Avg. POC” value [8] was 123 POC and the “Avg. POC” value [9] was 109.5 POC. The “Avg. POC” value [10] was 100.5 POC, the “Avg. POC” value [11] was 131.5 POC and the “Avg. POC” value [12] was 99 POC. For the same compound, the “Avg. POC” value [13] was 104 POC, the “Avg. POC” value [14] was 114 POC and the “Avg. POC” value [15] was 117.5 POC. The “Avg. POC” value [16] was 111 POC, the “Avg. POC” value [17] was 103 POC and the “Avg. POC” value [18] was 111.5 POC. For the same compound, the “Avg. POC” value [19] was 108 POC, the “Avg. POC” value [20] was 104 POC and the “Avg. POC” value [21] was 87.5 POC. For the same compound, the “Avg. POC” value [22] was 122 POC, the “Avg. POC” value [23] was 97 POC and the “Avg. POC” value [24] was 110 POC. For the same compound, the “Avg. POC” value [25] was 117.5 POC, the “Avg. POC” value [26] was 119 POC and the “Avg. POC” value [27] was 107 POC. The “Avg. POC” value [28] was 111.5 POC, the “Avg. POC” value [29] was 108.5 POC and the “Avg. POC” value [30] was 98 POC. For the same compound, the “Avg. POC” value [31] was 115 POC, the “Avg. POC” value [32] was 113 POC and the “Avg. POC” value [33] was 123 POC. For the same compound, the “Avg. POC” value [34] was 92 POC.
